Measurements reported in patent US20180256654A1, “USE OF LACTOBACILLUS PARACASEI STRAIN GMNL-653 TO PREPARE COMPOSITION FOR RESISTING BONE LOSS” (GENMONT BIOTECH INC., priority 2017, published 2018).

System: ovariectomized ICR female mice
Test: Bone tissue analysis by micro computed tomography: trabecular bone volume ratio in the osteoporosis mouse model
Format: in vivo
Conditions: oral gavage for 28 days
Description: Preparation of dead bacteria: 1 μl Lactobacillus paracasei strain GMNL-653 and the Lactobacillus salivarius strain GMNL-678 frozen viral was inoculated to 1 ml of MRS broth, respectively, and aerobically incubated at 37° C. for 20 hours (first activation). The next day, adding 15 μl culture solution (first activation) into 1.5 ml of MRS broth, and then and aerobically incubated at 37° C. for 20 hours (secondary activation) Estimating the bacteria number by using OD 600 nm to adjust the bacteria concentration to 4.1×10^8 CFU/ml, and heat-killed bacteria was carried by autoclaving at 121° C. for 15 minutes. […]
Micro computed tomography (SkyScan 1076, Kontizh, Belgium, with resolution of 18 μm) was taken of the backbone of the right femur far from the end was taken, and the trabecular bone volume ratio (i.e. bone volume/tissue volume; BV/TV) was analyzed by a software. The analyzed position was selected to include the area of 100 pieces under the growth plate excluding cortical bone. […] The obtained data in the experiments were analyzed with two-way analysis of variance, and the T-test statistical analysis. […] After comparisons, the abovementioned groups were analyzed statistically and noted by different marks to represent the statistically significant differences (* represents p<0.05; ** represents p<0.01 See Table 3 and Table 4, showing the results of the experiment 1.

NCCCC(O)(P(=O)(O)O)P(=O)(O)O [Alendronate]
BV/TV compared with the disease group (OVX+H2O), in words: higher than the disease group
